Measured values taken from publication PMC12040169 (PLOS Biology, 2025).

Test: in vitro
Conditions: human, hela cells, % viability

Compound	viability at 28.5 h, 10 µM [%]
O=C(CC1CCN(Cc2cccc(C(F)(F)F)c2)CC1)NCc1ccc2[nH]c(=O)[nH]c2c1 [CBK285954]	97.8
CC(C)(CNC(=O)c1ccc(=O)n(CC(=O)Nc2ccc(F)cc2)c1)c1cccc(F)c1 [CBK285955]	86.7
CCOc1cc(F)ccc1NC(=O)CC1CCN(c2nc(C)cc(C)n2)CC1 [CBK285958]	103
Cn1cnc2ccc(NC(=O)CC3CCN(C(=O)CC4CCCCC4)CC3)cc21 [CBK285961]	84.1
O=C(CC1CCN(C(=O)CC2CCCCC2)CC1)NCc1ccccc1N1CCCC1 [CBK285962]	99.2
Cn1c(-c2ccccc2)cnc1NC(=O)CC1CCN(C(=O)Cc2ccccc2)CC1 [CBK285966]	96.9
Cc1nc2ccc(NC(=O)CC3CCN(C(=O)CC4CCCCC4)CC3)cc2[nH]1 [CBK285967]	94.6
Cc1cccnc1Nc1ccc(C2CCCN(C(=O)Cc3c[nH]c4ccccc34)C2)nc1 (stereo not shown) [CBK285968]	97.7
Cc1cccnc1Nc1ccc(C2CCCN(C(=O)Cc3ccc4c(c3)CCCO4)C2)nc1 (stereo not shown) [CBK285969]	89.8
COc1ccc(OC(C)(C)C(=O)N2CCCC(c3ccc(Nc4ncccn4)cn3)C2)cc1 (stereo not shown) [CBK285970]	83.9
Cc1csc(Nc2cccc(C3CCCN3C(=O)CCOc3ccccc3C)n2)n1 (stereo not shown) [CBK285977]	101
Cc1cc(C)c2nc(NC(=O)c3ccc(=O)n(CC(=O)NC4CCCCC4)c3)sc2c1 [CBK285980]	107
O=C(Cn1cc(C(=O)Nc2cc(F)ccc2N2CCCC2)ccc1=O)NC1CCCCC1 [CBK285981]	102
O=C(Cn1cc(C(=O)NCC2(c3ccccc3Cl)CC2)ccc1=O)NC1CCCCC1 [CBK285985]	92.7
O=C(Cn1cc(C(=O)NC2(c3ccccc3)CCCC2)ccc1=O)NC1CCCCC1 [CBK285986]	82.6
COc1c(C)cccc1C(=O)N1CCCC(c2ccc(Nc3nc(C)cc(C)n3)cn2)C1 (stereo not shown) [CBK285989]	98.5
O=C(CC1Oc2ccccc2NC1=O)Nc1ccc2c(c1)CN(Cc1ccccc1)C2 (stereo not shown) [CBK285991]	88
COc1ccc(C(NC(=O)CC2CCN(c3nc(C)cc(C)n3)CC2)C2CC2)cc1 (stereo not shown) [CBK285994]	93.4
Cc1cc(C)nc(N2CCC(CC(=O)NCCOc3cccc(F)c3)CC2)n1 [CBK285996]	112
COc1ccccc1-c1ccccc1CN(C)Cc1ccccc1N1CCOCC1 [CBK286000]	88.7
O=C(CC1CCN(C(=O)Cc2ccccc2)CC1)Nc1nc2c(s1)CCCCC2 [CBK286001]	90.3
Cc1cc(CCCC(=O)N2CCCC(c3ccc(Nc4ncccn4)cn3)C2)ccc1F (stereo not shown) [CBK286003]	78.6
O=C(Nc1nc2c(s1)CCCCC2)C1CN(S(=O)(=O)c2ccc(F)cc2)C1 [CBK286005]	95
O=C(Nc1ccc(F)cc1)c1ccc(=O)n(CC(=O)N2CCC3(CCCCC3)C2)c1 [CBK286006]	94.9
Cc1cc(C)nc(Nc2ccc(C3CCCN(C(=O)C(C)(C)c4cccc(F)c4)C3)nc2)n1 (stereo not shown) [CBK286007]	85.2
Cc1ccc(C2CCCN2C(=O)c2cccn(CC(=O)NC3CCCCC3)c2=O)cc1C (stereo not shown) [CBK286009]	92.2
COc1cc(C)c(C)cc1S(=O)(=O)N1[C@@H](c2ccccc2F)C[C@@H]2NC(=O)CCC[C@H]21 [CBK286012]	112

Compound	viability at 28.5 h, 10 µM [%]
CNC(=O)c1ccc(-c2ccc(CNC(=O)C(C)Oc3ccc(C)c(C)c3)cc2)nc1C (stereo not shown) [CBK286014]	104
CNC(=O)c1ccc(-c2ccc(CNC(=O)CCc3cccc(Cl)c3)cc2)nc1C [CBK286015]	86.9
Cc1nc(-c2ccc(CNC(=O)C(Cc3ccccc3)N3CCCC3)cc2)ccc1C(N)=O (stereo not shown) [CBK286017]	92.6
CC(C)(CNC(=O)c1ccc(=O)n(CC(=O)N2CCc3ccccc32)c1)c1ccccc1F [CBK286020]	127
O=C(Cn1cc(C(=O)NC2(c3ccccc3)CCCC2)ccc1=O)NCc1ccc(F)cc1 [CBK286027]	84.4
COc1cccc(CC(=O)N2[C@H](Cc3ccccc3)C[C@@H]3NCCCCC[C@H]32)c1 [CBK286030]	105
Cc1[nH]c2ccccc2c1C(=O)N1CCC(CC(=O)N2CCN(c3ccccc3)CC2)CC1 [CBK286033]	96.6
Cc1ccc2c(c1)cc(C(=O)N1CCOC(C(=O)N3CCc4ccccc4C3)C1)n2C (stereo not shown) [CBK286035]	93.8
Cc1cc(C(=O)N2CCCC(c3ccc(Cc4ccc(Cl)cc4)cn3)C2)nc(N(C)C)n1 (stereo not shown) [CBK286036]	116
CC(=O)N1CCCC1C(=O)N1CC(C(=O)Nc2nc3c(C)cc(C)cc3s2)C1 (stereo not shown) [CBK286039]	86
O=C(Cn1cc(C(=O)NCC2(c3ccccc3)CCCC2)ccc1=O)NC1CCCC1 [CBK286040]	104
CC(C)c1ncc(CN2CCC(CC(=O)N3CCN(c4ccccc4)CC3)CC2)cn1 [CBK286048]	101
CC(C)c1ccc(C(C)NC(=O)Cn2cc(C(=O)Nc3ccc(F)cc3)ccc2=O)cc1 (stereo not shown) [CBK286049]	97.6
CC1CCc2nc(NC(=O)Cn3cc(C(=O)Nc4ccc(F)cc4)ccc3=O)sc2C1 (stereo not shown) [CBK286053]	100
O=C(Cn1cccc(C(=O)NC2CCCCC2)c1=O)NCC1(c2ccccc2Cl)CC1 [CBK286054]	94.6
O=C(Cn1cccc(C(=O)Nc2ccc(F)cc2)c1=O)NC1(c2ccccc2)CCCC1 [CBK286057]	96.3
O=C(Cn1cccc(C(=O)NC2CCCCC2)c1=O)NC1(c2ccccc2)CCCC1 [CBK286059]	85.1
CC1CCc2nc(NC(=O)Cn3cccc(C(=O)NC4CCCCC4)c3=O)sc2C1 (stereo not shown) [CBK286064]	101
CC(C)(CNC(=O)Cn1cccc(C(=O)Nc2ccc(F)cc2)c1=O)c1ccccc1F [CBK286067]	97.4
CC(C)(CNC(=O)Cn1cccc(C(=O)NC2CCCCC2)c1=O)c1cccc(F)c1 [CBK286069]	86.9
O=C(NCC1(c2ccccc2Cl)CC1)c1ccc(=O)n(CC(=O)N2CCCCC2)c1 [CBK286077]	84.8
O=C(Cn1cc(C(=O)Nc2ccc(F)cc2)ccc1=O)Nc1nc2c(s1)CCCCC2 [CBK286080]	99.3
O=C(NCC1(c2ccccc2)CCCC1)c1ccc(=O)n(CC(=O)N2CCCCC2)c1 [CBK286082]	93.5
O=C(Nc1cc(F)ccc1N1CCCC1)c1ccc(=O)n(CC(=O)N2CCCCC2)c1 [CBK286083]	97.7
CNC(=O)c1sc2ccccc2c1C1CN(Cc2cn(C)c3cc(OC)ccc23)CCO1 (stereo not shown) [CBK286087]	91.9
Cc1ccc(C2CCCN2C(=O)c2ccc(=O)n(CC(=O)Nc3ccc(F)cc3)c2)cc1C (stereo not shown) [CBK286088]	107
O=C(CN1CCC(c2cccc(Cc3cccc(F)c3)n2)CC1)Nc1nccs1 [CBK286090]	91.8

Compound	viability at 28.5 h, 10 µM [%]
Cc1noc(C)c1CC(=O)N1[C@H]2CCCCCN(C)[C@@]2(C)C[C@H]1c1ccccc1 [CBK286094]	85.8
CC(C)c1ccc(C(C)NC(=O)Cn2cc(C(=O)NC3CCCCC3)ccc2=O)cc1 (stereo not shown) [CBK286097]	100
CCCn1cnc2cc(NC(=O)Cn3cc(C(=O)NC4CCCCC4)ccc3=O)ccc21 [CBK286098]	96.6
O=C(Cn1cc(C(=O)NC2CCCCC2)ccc1=O)NCC1(c2ccccc2Cl)CC1 [CBK286101]	86.4
COc1ccccc1-c1ccc(CN(C)Cc2ccccc2N2CCOCC2)cc1 [CBK286108]	90.6
CN(C(=O)Cn1cccc(C(=O)NCC(C)(C)c2ccc(F)cc2)c1=O)C1CCCCC1 [CBK286112]	108
Cc1nn(C)cc1S(=O)(=O)N1CCC(c2cccc(Cc3ccccc3Cl)n2)CC1 [CBK286115]	95.3
CCn1ncc(S(=O)(=O)N2CCC(c3cccc(Cc4ccccc4C)n3)CC2)c1C [CBK286116]	91
COc1ccc(CN2CCCc3c(C)nc(C4CCCN(C(=O)C5CCC5)C4)nc32)cc1 (stereo not shown) [CBK286117]	95.1
Cc1cc(N2CCC(c3cc(CCOc4ccc(Cl)cc4)[nH]n3)C2)nc(C)n1 (stereo not shown) [CBK286119]	98.1
Cc1ccc(Nc2nccc(C3CCCN(Cc4ccc5[nH]ccc5c4)C3)n2)nc1 (stereo not shown) [CBK286122]	88
COC(C)(C)C(=O)N1CCCC(c2ccc(Cc3cccc(C(F)(F)F)c3)cn2)C1 (stereo not shown) [CBK286124]	107
CC(=O)Nc1ccc(C(=O)N2CCCC(c3cccc(Cc4ccccc4Cl)n3)C2)cc1 (stereo not shown) [CBK286126]	109
CC(=O)Nc1cccc(-c2nccnc2C2CCCN(CCc3ccccc3)C2)c1 (stereo not shown) [CBK286128]	110
CC(C)c1ccc(OCCc2cc(C3CCN(C(=O)CC4CCCC4)C3)n[nH]2)cc1 (stereo not shown) [CBK286129]	102
Cc1ccc(C2(O)CCN(C(=O)CC3CCN(C(=O)CC4CCCCC4)CC3)C2)cc1 (stereo not shown) [CBK286132]	96.9
COc1ccc(CN2CCCC(c3nccnc3-c3cccc(NC(C)=O)c3)C2)cc1 (stereo not shown) [CBK286135]	104
O=S(=O)(c1ccc(F)cc1)N1CCCC(c2nccnc2-c2ccc(F)cc2)C1 (stereo not shown) [CBK286136]	117
COc1cccc(-c2nccnc2C2CCCN(S(=O)(=O)c3ccc(F)cc3)C2)c1 (stereo not shown) [CBK286138]	108
Cc1ccccc1Cc1cccc(C2CCN(S(=O)(=O)c3cn(C)nc3C)CC2)n1 [CBK286141]	86.7
O=C(c1ccc(F)cc1)N1CCCC(c2nccnc2-c2cccc(C(F)(F)F)c2)C1 (stereo not shown) [CBK286142]	98.3
COc1ccccc1-c1cccc(C2CCCN(C(=O)Cc3c[nH]c4ccccc34)C2)n1 (stereo not shown) [CBK286143]	100
CC(=O)Nc1ccc(C(=O)N2CCCC2c2cccc(Cc3ccc(Cl)cc3)n2)cc1 (stereo not shown) [CBK286144]	110
Cc1ncsc1C(=O)N1CCC(c2cccc(Cc3ccccc3Cl)n2)CC1 [CBK286146]	99.2
Cc1ccccc1-c1cncc(C2CCN(C(=O)Cc3c[nH]c4ccccc34)CC2)n1 [CBK286148]	79.4
